# Data as given in ChEMBL document CHEMBL5727267, “Compounds useful as inhibitors of ATR kinase” (2019).
# Target: Serine/threonine-protein kinase ATR (Homo sapiens, UniProt Q13535)
# Assay: Inhibition Assay: Compounds were screened for their ability to inhibit ATR kinase using a radioactive-phosphate incorporation assay. Assays were carried out in a mixture of 50 mM Tris/HCl (pH 7.5), 10 mM MgCl2 and 1 mM DTT. Final substrate concentrations were 10 μM [γ-33P]ATP (3mCi 33P ATP/mmol ATP, Perkin Elmer) and 800 μM target peptide ([…]) (SEQ ID NO:1).Assays were carried out at 25° C. in the presence of 5 nM full-length ATR. An assay stock buffer solution was prepared containing all of the reagents listed above, with the exception of ATP and the test compound of interest. 13.5 μL of the stock solution was placed in a 96 well plate followed by addition of 2 μL of DMSO stock containing serial dilutions of the test compound (typically starting from a final concentration of 15 μM with 3-fold serial dilutions) in duplicate (final DMSO concentration 7%). The plate was pre-incubated for 10 minutes at 25° C. and the reaction initiated by addition of 15 μL [γ-33P]ATP (final concentration 10 μM).The reaction was stopped after 24 hours by the addition of 30 μL 0.1M phosphoric acid containing 2 mM ATP. A multiscreen phosphocellulose filter 96-well plate (Millipore, Cat no. MAPHN0B50) was pretreated with 100 μL 0.2M phosphoric acid prior to the addition of […] of the stopped assay mixture. The plate was washed with 5×200 μL 0.2M phosphoric acid. After drying, 100 μL Optiphase ‘SuperMix’ liquid scintillation cocktail (Perkin Elmer) was added to the well prior to scintillation counting (1450 Microbeta Liquid Scintillation Counter, Wallac).
# Serine/threonine-protein kinase ATR, sequence (Q13535 whole entry): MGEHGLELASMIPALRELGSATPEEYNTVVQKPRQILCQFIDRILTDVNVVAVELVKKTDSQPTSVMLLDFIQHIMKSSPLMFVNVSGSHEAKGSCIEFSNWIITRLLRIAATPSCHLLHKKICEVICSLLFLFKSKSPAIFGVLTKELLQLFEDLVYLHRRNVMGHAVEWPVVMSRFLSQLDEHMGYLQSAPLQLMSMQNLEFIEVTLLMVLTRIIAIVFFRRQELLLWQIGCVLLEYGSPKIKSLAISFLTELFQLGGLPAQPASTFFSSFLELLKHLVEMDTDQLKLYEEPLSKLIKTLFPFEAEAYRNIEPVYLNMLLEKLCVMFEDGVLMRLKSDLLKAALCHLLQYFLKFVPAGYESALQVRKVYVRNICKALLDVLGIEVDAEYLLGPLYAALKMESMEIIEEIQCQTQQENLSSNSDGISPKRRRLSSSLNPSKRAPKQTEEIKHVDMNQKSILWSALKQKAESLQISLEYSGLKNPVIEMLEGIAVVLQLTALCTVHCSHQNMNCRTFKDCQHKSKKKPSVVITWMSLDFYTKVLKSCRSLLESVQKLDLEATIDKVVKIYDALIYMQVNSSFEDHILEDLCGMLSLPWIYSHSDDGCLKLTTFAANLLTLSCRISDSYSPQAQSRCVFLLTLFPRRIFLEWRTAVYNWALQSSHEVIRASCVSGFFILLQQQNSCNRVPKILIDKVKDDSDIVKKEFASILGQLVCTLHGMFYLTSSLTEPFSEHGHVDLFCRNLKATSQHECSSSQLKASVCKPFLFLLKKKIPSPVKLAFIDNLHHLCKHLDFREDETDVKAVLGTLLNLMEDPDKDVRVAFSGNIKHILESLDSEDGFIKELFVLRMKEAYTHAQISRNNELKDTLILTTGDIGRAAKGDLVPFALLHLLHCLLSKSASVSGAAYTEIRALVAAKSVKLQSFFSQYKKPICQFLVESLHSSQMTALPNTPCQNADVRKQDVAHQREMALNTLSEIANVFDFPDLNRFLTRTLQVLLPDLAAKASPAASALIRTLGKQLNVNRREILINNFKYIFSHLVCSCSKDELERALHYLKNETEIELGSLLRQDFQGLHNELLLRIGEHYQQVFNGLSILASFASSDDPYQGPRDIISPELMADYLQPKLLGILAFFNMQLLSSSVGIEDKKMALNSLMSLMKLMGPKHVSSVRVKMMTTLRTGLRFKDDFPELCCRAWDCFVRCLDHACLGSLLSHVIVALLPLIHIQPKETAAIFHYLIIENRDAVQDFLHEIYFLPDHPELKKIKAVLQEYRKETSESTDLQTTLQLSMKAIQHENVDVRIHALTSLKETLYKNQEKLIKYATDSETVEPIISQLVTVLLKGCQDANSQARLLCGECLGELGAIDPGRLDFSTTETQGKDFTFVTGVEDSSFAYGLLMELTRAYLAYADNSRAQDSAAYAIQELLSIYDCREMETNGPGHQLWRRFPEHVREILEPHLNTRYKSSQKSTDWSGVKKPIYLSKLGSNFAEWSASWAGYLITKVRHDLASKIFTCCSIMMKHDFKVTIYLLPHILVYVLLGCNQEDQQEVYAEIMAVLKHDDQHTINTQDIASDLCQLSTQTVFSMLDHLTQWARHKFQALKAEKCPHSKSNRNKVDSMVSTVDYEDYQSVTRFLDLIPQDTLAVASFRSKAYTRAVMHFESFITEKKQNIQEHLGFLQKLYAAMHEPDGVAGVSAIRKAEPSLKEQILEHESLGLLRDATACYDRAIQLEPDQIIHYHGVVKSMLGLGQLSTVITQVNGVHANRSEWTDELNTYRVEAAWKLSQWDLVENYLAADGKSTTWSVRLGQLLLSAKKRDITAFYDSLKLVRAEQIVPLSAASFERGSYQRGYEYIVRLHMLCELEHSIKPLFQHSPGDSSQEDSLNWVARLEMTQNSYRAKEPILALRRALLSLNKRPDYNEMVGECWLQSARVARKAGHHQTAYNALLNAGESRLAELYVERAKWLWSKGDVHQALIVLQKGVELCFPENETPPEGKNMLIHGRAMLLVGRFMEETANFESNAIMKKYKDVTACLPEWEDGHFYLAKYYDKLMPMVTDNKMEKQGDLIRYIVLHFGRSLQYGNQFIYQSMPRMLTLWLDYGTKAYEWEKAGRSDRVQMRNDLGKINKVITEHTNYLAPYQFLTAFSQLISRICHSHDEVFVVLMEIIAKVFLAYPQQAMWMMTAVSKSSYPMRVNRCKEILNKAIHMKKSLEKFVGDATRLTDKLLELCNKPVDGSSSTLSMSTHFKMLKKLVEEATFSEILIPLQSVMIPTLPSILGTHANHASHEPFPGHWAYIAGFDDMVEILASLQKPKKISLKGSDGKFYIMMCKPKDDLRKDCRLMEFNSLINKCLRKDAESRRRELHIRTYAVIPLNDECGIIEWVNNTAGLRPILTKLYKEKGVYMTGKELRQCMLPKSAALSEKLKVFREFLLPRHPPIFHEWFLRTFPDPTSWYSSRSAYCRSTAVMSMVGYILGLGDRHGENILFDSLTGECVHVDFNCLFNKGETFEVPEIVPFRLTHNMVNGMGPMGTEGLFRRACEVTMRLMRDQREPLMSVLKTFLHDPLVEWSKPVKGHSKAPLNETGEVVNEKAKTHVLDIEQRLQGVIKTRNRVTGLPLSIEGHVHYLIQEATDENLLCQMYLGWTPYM
row,Ki,SMILES
1,10 to 1000 nM,CC(=O)N1CCN(c2ccncc2NC(=O)c2c(N)nn3cc(F)cnc23)CC1
2,< 10 nM,N#CCc1cnc2c(C(=O)Nc3cnccc3O[C@H]3CCNC3)c(N)nn2c1
3,< 10 nM,Nc1nn2cc(F)cnc2c1C(=O)Nc1cncc(F)c1N1CCC(C(=O)N2CCC(N3CCC3)CC2)CC1
